Reference: ChEMBL document CHEMBL1136074, “BR96 conjugates of highly potent anthracyclines” (Bioorg Med Chem Lett, 2003)

Legend:
[1] = test system: L2987; assay: In vitro inhibitory concentration of the unconjugated compound against human L2987 lung carcinoma cell line; assay type: functional, cell-based
[2] = test system: L2987; assay: Potency against human L2987 lung carcinoma cell line relative to that of DOX 1a; assay type: functional
[3] = test system: L2987; assay: (§1) Potency against human L2987 lung carcinoma cell line relative to that of BR96-1b; assay type: functional, cell-based
[4] = test system: L2987; assay: In vitro inhibitory concentration of the IgG conjugate of compound against human L2987 lung carcinoma cell line; assay type: functional, cell-based
[5] = test system: L2987; assay: In vitro inhibitory concentration of the BR96 conjugate of compound against human L2987 lung carcinoma cell line; assay type: functional, cell-based
[6] = Selectivity ratio determined as IC50 IgG-3b to that of IC50 BR96-3b; assay type: functional
[7] = Hydrolytic stability at pH 5.0 at 37 degree C; expressed as T1/2; assay type: physicochemical; conditions: buffer
[8] = Hydrolytic stability at pH 7.0 at 37 degree C; expressed as T1/2; assay type: physicochemical; conditions: buffer
[9] = Selectivity ratio determined as IC50 IgG-1b to that of IC50 BR96-1b; assay type: functional
[10] = test system: L2987; assay: as §1; assay type: functional
[11] = Selectivity ratio determined as IC50 IgG-2b to that of IC50 BR96-2b; assay type: functional

SMILES	IC50 [1]	IC50 [5]	half-life [7]	half-life [8]	other results
COc1cccc2c1C(=O)c1c(O)c3c(c(O)c1C2=O)C[C@@](O)(C(=O)CO)C[C@@H]3OC1C[C@H](NCCCCC(OC(C)=O)OC(C)=O)C(O)[C@H](C)O1 (stereo partly specified)	30 nM	–	–	–	Relative potency [2]: 10
COc1cccc2c1C(=O)c1c(O)c3c(c(O)c1C2=O)C[C@@](O)(/C(CO)=N/NC(=O)CCCCCN1C(=O)CC(S)C1=O)C[C@@H]3OC1C[C@H](N2CCOCC2)C(O)[C@H](C)O1 (stereo partly specified)	–	200 nM	–	–	IC50 [3]: 5000 nM; IC50 [4]: 2000 nM; Ratio [6]: 10
COc1cccc2c1C(=O)c1c(O)c3c(c(O)c1C2=O)C[C@@](O)(C(=O)CO)C[C@@H]3OC1C[C@H](N2CCOCC2)C(O)[C@H](C)O1 (stereo partly specified)	40 nM	–	–	–	Relative potency [2]: 8
COc1cccc2c1C(=O)c1c(O)c3c(c(O)c1C2=O)C[C@@](O)(/C(CO)=N/NC(=O)CCCCCN1C(=O)CC(SCCO)C1=O)C[C@@H]3OC1C[C@H](NCCCCC(OC(C)=O)OC(C)=O)C(O)[C@H](C)O1 (stereo partly specified)	–	–	6.5 h	> 100 h	–
COc1cccc2c1C(=O)c1c(O)c3c(c(O)c1C2=O)C[C@@](O)(C(=O)CO)C[C@@H]3O[C@H]1C[C@H](N)[C@H](O)[C@H](C)O1 [DOXORUBICIN]	300 nM	–	–	–	–
COc1cccc2c1C(=O)c1c(O)c3c(c(O)c1C2=O)C[C@@](O)(/C(CO)=N/NC(=O)CCCCCN1C(=O)CC(S)C1=O)C[C@@H]3OC1C[C@H](N)C(O)[C@H](C)O1 (stereo partly specified)	–	1000 nM	–	–	Ratio [9]: 8
COc1cccc2c1C(=O)c1c(O)c3c(c(O)c1C2=O)C[C@@](O)(/C(CO)=N/NC(=O)CCCCCN1C(=O)CC(S)C1=O)C[C@@H]3OC1C[C@H](NCCCCC(OC(C)=O)OC(C)=O)C(O)[C@H](C)O1 (stereo partly specified)	–	30 nM	–	–	Relative potency [10]: 30; IC50 [4]: 10000 nM; Ratio [11]: 300
COc1cccc2c1C(=O)c1c(O)c3c(c(O)c1C2=O)C[C@@](O)(/C(CO)=N/NC(=O)CCCCCN1C(=O)CC(SCCO)C1=O)C[C@@H]3OC1C[C@H](N)C(O)[C@H](C)O1 (stereo partly specified)	–	–	7 h	> 120 h	–
COc1cccc2c1C(=O)c1c(O)c3c(c(O)c1C2=O)C[C@@](O)(/C(CO)=N/NC(=O)CCCCCN1C(=O)CC(SCCO)C1=O)C[C@@H]3OC1C[C@H](N2CCOCC2)C(O)[C@H](C)O1 (stereo partly specified)	–	–	4.5 h	> 95 h	–
